For one test, the target named is MTP (Homo sapiens, UniProt P55157). Kind of test: MTP assay (triglyceride transfer from donor to acceptor vesicles). In kind it is biochemical. The following applies: MTP activity, percent triglyceride transfer, 37° C.; read-out: pIC50 values (= −log IC50 value) (converted). As for the experimental part:
MTP activity was measured using an assay similar to one described by J. R. Wetterau and D. B. Zilversmit in Chemistry and Physics of Lipids, 38, 205-222 (1985). To prepare the donor and acceptor vesicles, the appropriate lipids in chloroform were put into a glass test tube and dried under a stream of N2. A buffer containing 15 mM Tris-HCl pH 7.5, 1 mM EDTA, 40 mM NaCl, 0.02% NaN3 (assay buffer) was added to the dried lipid. The mixture was vortexed briefly and the lipids were then allowed to hydrate for 20 min on ice. Vesicles were then prepared by bath sonication (Branson 2200) at room temperature for maximum 15 min. Butylated hydroxytoluene was included in all vesicle preparations at a concentration of 0.1%. The lipid transfer assay mixture contained donor vesicles (40 nmol phosphatidylcholine, 7.5 mol % of cardiolipin and 0.25 mol % glycerol tri [1-^14C]-oleate), acceptor vesicles (240 nmol phosphatidylcholine) and 5 mg BSA in a total volume of 675 μl in a 1.5 ml microcentrifuge tube. Test compounds were added dissolved in DMSO (0.13% final concentration). After 5 minutes of pre-incubation at 37° C., the reaction was started by the addition of MTP in 100 μl dialysis buffer. The reaction was stopped by the addition of 400 μl DEAE-52 cellulose pre-equilibrated in 15 mM Tris-HCl pH 7.5, 1 mM EDTA, 0.02% NaN3 (1:1, vol/vol). The mixture was agitated for 4 min and centrifuged for 2 min at maximum speed in an Eppendorf centrifuge (4° C.) to pellet the DEAE-52-bound donor vesicles. An aliquot of the supernatant containing the acceptor liposomes was counted and the [^14C]-counts were used to calculate the percent triglyceride transfer from donor to acceptor vesicles.
Resulting IC50 values are enumerated in Table C.2. When the calculated IC50 was below 7, not enough data points were available at the tested concentrations to calculate an IC50 value.

For test [1], the system named is ApoB secretion, HepG2 cells. The experiment in a line: Quantification of the secretion of ApoB. The test is classed as cell-based. Conditions: Homo sapiens, 24 hours of incubation, secreted apoB immunoprecipitated, read-out: pIC50 values (= −log IC50 value) (converted). On the procedure:
HepG2 cells were cultured in 24-well plates in MEM Rega 3 containing 10% fetal calf serum. At 70% confluency, the medium was changed and the test compound or carrier (DMSO, 0.4% final concentration) was added. After 24 hours of incubation, the medium was transferred to Eppendorf tubes and cleared by centrifugation. A sheep antibody directed against either apoB was added to the supernatant and the mixture was kept at 8° C. for 24 hours. Then, rabbit anti-sheep antibody was added and the immune complex was allowed to precipitate for 24 hours at 8° C. The immunoprecipitate was pelleted by centrifugation for 25 minutes at 1320 g and washed twice with a buffer containing 40 mM Mops, 40 mM NaH2PO4, 100 mM NaF, 0.2 mM DTT, 5 mM EDTA, 5 mM EGTA, 1% Triton-X-100, 0.5% sodium deoxycholate (DOC), 0.1% SDS, 0.2 μM leupeptin and 0.2 μM PMSF. Radioactivity in the pellet was quantified by liquid scintillation counting.
Resulting IC50 values are enumerated in Table C.1. When the calculated IC50 was below 6, not enough data points were available at the tested concentrations to calculate an IC50 value.

From patent US8772494B2, “N-aryl piperidine substituted biphenylcarboxamides as inhibitors of apolipoprotein b” (Janssen Pharmaceutica N.V., priority 2003, dated 2014) come the findings set out here.

Bounds are passed on as bounds.

Sequence of MTP (P55157 19-894, species assumed): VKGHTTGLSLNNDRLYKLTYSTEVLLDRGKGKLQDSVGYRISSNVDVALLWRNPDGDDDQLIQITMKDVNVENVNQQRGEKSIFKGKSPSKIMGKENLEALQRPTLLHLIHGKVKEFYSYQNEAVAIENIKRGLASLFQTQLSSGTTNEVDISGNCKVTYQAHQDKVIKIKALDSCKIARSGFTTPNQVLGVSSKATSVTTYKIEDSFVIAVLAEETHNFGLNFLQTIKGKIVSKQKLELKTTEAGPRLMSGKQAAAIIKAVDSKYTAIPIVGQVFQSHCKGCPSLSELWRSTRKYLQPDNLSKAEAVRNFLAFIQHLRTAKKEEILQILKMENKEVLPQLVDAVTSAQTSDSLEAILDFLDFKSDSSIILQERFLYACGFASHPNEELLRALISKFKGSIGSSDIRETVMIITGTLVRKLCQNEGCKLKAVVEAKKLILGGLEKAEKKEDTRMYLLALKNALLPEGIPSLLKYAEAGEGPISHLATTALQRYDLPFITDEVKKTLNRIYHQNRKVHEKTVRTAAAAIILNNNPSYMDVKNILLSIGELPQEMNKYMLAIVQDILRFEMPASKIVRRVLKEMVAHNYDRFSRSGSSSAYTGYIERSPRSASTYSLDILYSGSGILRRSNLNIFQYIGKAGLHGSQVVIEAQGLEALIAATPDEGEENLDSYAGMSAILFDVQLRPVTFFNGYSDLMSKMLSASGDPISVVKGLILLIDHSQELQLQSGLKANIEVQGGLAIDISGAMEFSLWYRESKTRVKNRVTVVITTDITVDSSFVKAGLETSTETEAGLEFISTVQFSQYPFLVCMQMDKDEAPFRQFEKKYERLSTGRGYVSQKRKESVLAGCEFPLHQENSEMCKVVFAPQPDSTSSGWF
Sequence of MTP (P07237 18-508 partner, species assumed): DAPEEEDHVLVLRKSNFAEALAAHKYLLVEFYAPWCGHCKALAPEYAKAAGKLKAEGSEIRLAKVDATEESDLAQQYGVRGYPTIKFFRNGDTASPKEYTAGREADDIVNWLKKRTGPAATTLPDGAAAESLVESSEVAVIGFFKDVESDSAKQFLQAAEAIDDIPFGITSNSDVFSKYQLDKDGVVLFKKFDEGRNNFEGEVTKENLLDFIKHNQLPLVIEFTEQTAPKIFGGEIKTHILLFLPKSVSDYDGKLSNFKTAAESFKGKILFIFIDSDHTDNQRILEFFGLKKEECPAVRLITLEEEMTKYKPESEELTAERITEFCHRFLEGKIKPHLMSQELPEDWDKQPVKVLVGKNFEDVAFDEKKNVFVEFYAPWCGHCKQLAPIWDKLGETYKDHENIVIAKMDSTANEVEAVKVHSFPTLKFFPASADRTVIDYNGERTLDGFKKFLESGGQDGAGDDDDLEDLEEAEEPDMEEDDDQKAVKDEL

Usually IC50 stands for the midpoint of a concentration-inhibition curve. Take `CCOC(=O)C1CCCCN1C(=O)CC1CCN(c2ccc(NC(=O)c3ccccc3-c3ccc(C(F)(F)F)cc3)cc2)CC1` (stereo not drawn) [Compound 1]: the IC50 was more than 100 nM at MTP and more than 1000 nM in test [1].
In the case of `CCOC(=O)C1CCCN(C(=O)CC2CCN(c3ccc(NC(=O)c4ccccc4-c4ccc(C(F)(F)F)cc4)cc3)CC2)C1` (stereo not drawn) [Compound 2], the IC50 at MTP was more than 1000 nM; in test [1], 65.3 nM.
As for `COC(=O)C(C)NC(=O)CC1CCN(c2ccc(NC(=O)c3ccccc3-c3ccc(C(F)(F)F)cc3)cc2)CC1` (stereo not drawn) [Compound 3], the IC50 on MTP is 7.82 nM; in test [1], 61.4 nM.
Consider `COC(=O)C(NC(=O)CC1CCN(c2ccc(NC(=O)c3ccccc3-c3ccc(C(F)(F)F)cc3)cc2)CC1)C(C)C` (stereo not drawn) [Compound 4], for which the figures for the IC50 (at MTP; in test [1]) were 41.3 nM and 48.5 nM, respectively.
Consider `CCOC(=O)C(C)NC(=O)CC1CCN(c2ccc(NC(=O)c3ccccc3-c3ccc(C(F)(F)F)cc3)cc2)CC1` (stereo not drawn) [Compound 5], for which the IC50 on MTP was 2.06 nM; in test [1], less than 30 nM.
Consider `CCOC(=O)C(Cc1c[nH]c2ccccc12)NC(=O)CC1CCN(c2ccc(NC(=O)c3ccccc3-c3ccc(C(F)(F)F)cc3)cc2)CC1` (stereo not drawn) [Compound 6], for which the IC50 is 9.31 nM on MTP and less than 30 nM in test [1].
Turning to `CCOC(=O)C(CCSC)NC(=O)CC1CCN(c2ccc(NC(=O)c3ccccc3-c3ccc(C(F)(F)F)cc3)cc2)CC1` (stereo not drawn) [Compound 7], the IC50 at MTP is 25.5 nM; in test [1] it was 138 nM.
The matching figures for `CCOC(=O)CC(NC(=O)CC1CCN(c2ccc(NC(=O)c3ccccc3-c3ccc(C(F)(F)F)cc3)cc2)CC1)c1ccc2c(c1)OCO2` (stereo not drawn) [Compound 8]: 20.1 nM and less than 30 nM.
Regarding `COC(=O)[C@H]1CCCCN1C(=O)CC1CCN(c2ccc(NC(=O)c3ccccc3-c3ccc(C(F)(F)F)cc3)cc2)CC1` [Compound 9], the IC50 at MTP is more than 100 nM; in test [1], more than 1000 nM.
As for `COC(=O)[C@@H]1CCCCN1C(=O)CC1CCN(c2ccc(NC(=O)c3ccccc3-c3ccc(C(F)(F)F)cc3)cc2)CC1` [Compound 10], the IC50 on MTP is more than 100 nM; in test [1], more than 1000 nM.
The matching figures for `CCOC(=O)[C@H]1CCCN(C(=O)CC2CCN(c3ccc(NC(=O)c4ccccc4-c4ccc(C(F)(F)F)cc4)cc3)CC2)C1` [Compound 11]: more than 100 nM and more than 1000 nM.
The matching figures for `CCOC(=O)[C@@H]1CCCN(C(=O)CC2CCN(c3ccc(NC(=O)c4ccccc4-c4ccc(C(F)(F)F)cc4)cc3)CC2)C1` [Compound 12]: more than 100 nM and more than 1000 nM.
Take `CCOC(=O)[C@H]1CCCN1C(=O)CC1CCN(c2ccc(NC(=O)c3ccccc3-c3ccc(C(F)(F)F)cc3)cc2)CC1` [Compound 13]: the results for the IC50 (on MTP; in test [1]) were more than 100 nM and more than 1000 nM, respectively.
Regarding `CCOC(=O)[C@@H]1C[C@@H](O)CN1C(=O)CC1CCN(c2ccc(NC(=O)c3ccccc3-c3ccc(C(F)(F)F)cc3)cc2)CC1` [Compound 14], the values for the IC50 (on MTP; in test [1]) were more than 100 nM and more than 1000 nM, respectively.
On to `COC(=O)C1C[C@@H](O)CN1C(=O)CC1CCN(c2ccc(NC(=O)c3ccccc3-c3ccc(C(F)(F)F)cc3)cc2)CC1` (stereo partly drawn) [Compound 15], for which the results for the IC50 (at MTP; in test [1]) were more than 100 nM and more than 1000 nM, respectively.
The matching figures for `COC(=O)[C@@H]1C[C@H](O)CN1C(=O)CC1CCN(c2ccc(NC(=O)c3ccccc3-c3ccc(C(F)(F)F)cc3)cc2)CC1` [Compound 16]: more than 100 nM and more than 1000 nM.
For the compound `CCOC(=O)[C@H](C)NC(=O)CC1CCN(c2ccc(NC(=O)c3ccccc3-c3ccc(C(F)(F)F)cc3)cc2)CC1` [Compound 17], the half-maximal inhibitory concentration (IC50) was 5.6 nM on MTP and more than 1000 nM in test [1].
Regarding `CCOC(=O)[C@@H](C)NC(=O)CC1CCN(c2ccc(NC(=O)c3ccccc3-c3ccc(C(F)(F)F)cc3)cc2)CC1` [Compound 18], the results for the IC50 (on MTP; in test [1]) were 3.42 nM and less than 30 nM, respectively.
With `CCOC(=O)[C@@H](NC(=O)CC1CCN(c2ccc(NC(=O)c3ccccc3-c3ccc(C(F)(F)F)cc3)cc2)CC1)C(C)C` [Compound 19], the results for the IC50 (on MTP; in test [1]) were more than 100 nM and 116 nM, respectively.
The matching figures for `CCOC(=O)[C@H](NC(=O)CC1CCN(c2ccc(NC(=O)c3ccccc3-c3ccc(C(F)(F)F)cc3)cc2)CC1)C(C)C` [Compound 20]: 6.37 nM and less than 30 nM.
The matching figures for `CCOC(=O)[C@H](NC(=O)CC1CCN(c2ccc(NC(=O)c3ccccc3-c3ccc(C(F)(F)F)cc3)cc2)CC1)c1ccccc1` [Compound 21]: 3.37 nM and 121 nM.
The matching figures for `CCOC(=O)[C@@H](NC(=O)CC1CCN(c2ccc(NC(=O)c3ccccc3-c3ccc(C(F)(F)F)cc3)cc2)CC1)c1ccccc1` [Compound 22]: 8.93 nM and 54.8 nM.
With `CCOC(=O)[C@H](Cc1ccccc1)NC(=O)CC1CCN(c2ccc(NC(=O)c3ccccc3-c3ccc(C(F)(F)F)cc3)cc2)CC1` [Compound 24], the IC50 is 76.7 nM on MTP and 841 nM in test [1].
Regarding `CCOC(=O)[C@@H](Cc1ccccc1)NC(=O)CC1CCN(c2ccc(NC(=O)c3ccccc3-c3ccc(C(F)(F)F)cc3)cc2)CC1` [Compound 25], the IC50 in test [1] is more than 1000 nM.
For the compound `CCOC(=O)CCNC(=O)CC1CCN(c2ccc(NC(=O)c3ccccc3-c3ccc(C(F)(F)F)cc3)cc2)CC1` [Compound 26], the IC50 on MTP was 8.41 nM; in test [1] it was 58.6 nM.
For `COC(=O)[C@H](CCN)NC(=O)CC1CCN(c2ccc(NC(=O)c3ccccc3-c3ccc(C(F)(F)F)cc3)cc2)CC1` [Compound 27], the IC50 on MTP is more than 100 nM; in test [1], 643 nM.
For the compound `COC(=O)[C@H](CCCN)NC(=O)CC1CCN(c2ccc(NC(=O)c3ccccc3-c3ccc(C(F)(F)F)cc3)cc2)CC1` [Compound 28], the IC50 at MTP was more than 100 nM; in test [1], more than 1000 nM.
Turning to `COC(=O)[C@H](CCCCN)NC(=O)CC1CCN(c2ccc(NC(=O)c3ccccc3-c3ccc(C(F)(F)F)cc3)cc2)CC1` [Compound 29], the values for the IC50 (on MTP; in test [1]) were more than 100 nM and more than 1000 nM, respectively.
For `CCOC(=O)[C@H](CC(C)C)NC(=O)CC1CCN(c2ccc(NC(=O)c3ccccc3-c3ccc(C(F)(F)F)cc3)cc2)CC1` [Compound 30], in that order: 22 nM and 575 nM.
With `CCOC(=O)[C@H](Cc1ccc(O)cc1)NC(=O)CC1CCN(c2ccc(NC(=O)c3ccccc3-c3ccc(C(F)(F)F)cc3)cc2)CC1` [Compound 31], the IC50 at MTP is 81.1 nM; in test [1], more than 1000 nM.
For `CCOC(=O)[C@@H]1CCCN1C(=O)CC1CCN(c2ccc(NC(=O)c3ccccc3-c3ccc(C(F)(F)F)cc3)cc2)CC1` [Compound 32], in that order: 31.6 nM and 406 nM.
In the case of `CCOC(=O)CN(C)C(=O)CC1CCN(c2ccc(NC(=O)c3ccccc3-c3ccc(C(F)(F)F)cc3)cc2)CC1` [Compound 33], the IC50 on MTP was 69.5 nM; in test [1] it was more than 1000 nM.
On to `CCOC(=O)C[C@H](NC(=O)CC1CCN(c2ccc(NC(=O)c3ccccc3-c3ccc(C(F)(F)F)cc3)cc2)CC1)C(=O)OCC` [Compound 36], for which the IC50 on MTP is 39.4 nM.
For `CCOC(=O)[C@H](C)NC(=O)CC1CCN(c2ccc(NC(=O)c3cccc(C)c3-c3ccc(C(F)(F)F)cc3)cn2)CC1` [Compound 45], in test [1], the IC50 was 962 nM.
The same measure, in the same setting: as for `COC(=O)[C@H](C)NC(=O)CC1CCN(c2ccc(NC(=O)c3cccc(C)c3-c3ccc(C(F)(F)F)cc3)cc2)CC1` [Compound 46], the figure is 218 nM.
Same read-out and setting: as for `CCOC(=O)[C@H](C)NC(=O)CC1CCN(c2ccc(N(C)C(=O)c3ccccc3-c3ccc(C(F)(F)F)cc3)cc2)CC1` [Compound 47], the figure is more than 1000 nM; as for `CCOC(=O)[C@H](C)NC(=O)CC1CCN(c2ccc(NC(=O)c3cccc(C)c3-c3ccc(C(F)(F)F)cc3)nc2)CC1` [Compound 48], 670 nM.
For `CCOC(=O)[C@H](C)NC(=O)CC1CCN(c2ccc(N(C)C(=O)c3cccc(C)c3-c3ccc(C(F)(F)F)cc3)cn2)CC1` [Compound 50], on MTP, the IC50 was 10.4 nM.
